Measured values published in ChEMBL document CHEMBL5550092, “Synthesis and biological evaluation of triazolones/oxadiazolones as novel urease inhibitors” (Bioorg Med Chem, 2024).
Active and inactive are the calls of the source. The rule behind the calls is not given here.

Experiments:
[1] = molecular target: Urease subunit alpha/Urease subunit beta (Helicobacter pylori (strain ATCC 700392 / 26695) (Campylobacterpylori), UniProt P69996); experiment: (§1) Inhibition of Helicobacter pylori urease using urea as substrate assessed as decrease in ammonia production incubated for 0.5 hrs by indole phenol method; format: protein-complex assay
Urease subunit alpha/Urease subunit beta, sequence (P69996 whole entry): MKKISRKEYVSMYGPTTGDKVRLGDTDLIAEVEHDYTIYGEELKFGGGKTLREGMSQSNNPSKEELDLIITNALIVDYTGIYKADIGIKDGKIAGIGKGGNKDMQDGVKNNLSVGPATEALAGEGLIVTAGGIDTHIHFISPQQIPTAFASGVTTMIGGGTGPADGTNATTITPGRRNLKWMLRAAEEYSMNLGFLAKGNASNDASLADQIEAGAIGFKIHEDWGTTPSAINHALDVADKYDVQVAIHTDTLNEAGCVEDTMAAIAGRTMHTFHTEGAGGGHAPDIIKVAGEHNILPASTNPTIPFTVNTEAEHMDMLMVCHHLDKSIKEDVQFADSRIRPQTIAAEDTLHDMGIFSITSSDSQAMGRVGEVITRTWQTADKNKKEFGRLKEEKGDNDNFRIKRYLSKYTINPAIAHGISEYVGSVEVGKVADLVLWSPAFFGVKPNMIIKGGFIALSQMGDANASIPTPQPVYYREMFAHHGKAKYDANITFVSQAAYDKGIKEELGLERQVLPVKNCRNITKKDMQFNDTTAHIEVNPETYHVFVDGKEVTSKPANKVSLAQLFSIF
Urease subunit alpha/Urease subunit beta, sequence (P14916 whole entry, further chain): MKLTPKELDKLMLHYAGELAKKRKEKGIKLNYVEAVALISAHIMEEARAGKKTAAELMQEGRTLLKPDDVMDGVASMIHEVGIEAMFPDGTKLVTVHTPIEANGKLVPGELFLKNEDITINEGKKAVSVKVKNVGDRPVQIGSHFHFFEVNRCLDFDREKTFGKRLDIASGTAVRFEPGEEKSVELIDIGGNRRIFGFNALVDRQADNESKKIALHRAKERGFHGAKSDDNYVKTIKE

[2] = Cytotoxicity against human HepG2 cells assessed as cell viability at 250 ug/ml incubated for 72 hrs by CCK8 assay relative to control; format: toxicity, cell-based; details: at 250 µg/mL, read-out: Activity
[3] = Cytotoxicity against human SGC-7901 cells assessed as cell viability at 250 ug/ml incubated for 72 hrs by CCK8 assay relative to control; format: toxicity, cell-based; details: at 250 µg/mL, read-out: Activity
[4] = Cytotoxicity against human K562 cells assessed as cell viability at 250 ug/ml incubated for 72 hrs by CCK8 assay relative to control; format: toxicity, cell-based; details: at 250 µg/mL, read-out: Activity
[5] = Cytotoxicity against human L02 cells assessed as cell viability at 250 ug/ml incubated for 72 hrs by CCK8 assay relative to control; format: toxicity, cell-based; details: at 250 µg/mL, read-out: Activity
[6] = molecular target: T1, Urease subunit alpha/Urease subunit beta (Helicobacter pylori (strain ATCC 700392 / 26695) (Campylobacterpylori)) (UniProt P69996+P14916); experiment: as §1; format: protein-complex assay
T1 sequence (P14916 whole entry, looked up): as the sequence (P14916 whole entry, further chain) above
T1 sequence (P69996 whole entry, looked up): as the sequence (P69996 whole entry) above

[7] = molecular target: T1, Urease subunit alpha/Urease subunit beta (Helicobacter pylori (strain ATCC 700392 / 26695) (Campylobacterpylori)); experiment: Inhibition of urease using urea as substrate assessed as decrease in ammonia production at 800 ug/ml preincubated for 100 min by indole phenol method; format: protein-complex assay; details: dose 800.0 µg/ml
[8] = molecular target: T1, Urease subunit alpha/Urease subunit beta (Helicobacter pylori (strain ATCC 700392 / 26695) (Campylobacterpylori)); experiment: Inhibition of urease using urea as substrate assessed as decrease in ammonia production at 800 ug/ml by indole phenol method; format: protein-complex assay; details: dose 800.0 µg/ml, time <= 120.0 min

Cc1cc(C)cc(N2CC(Cc3n[nH]c(=O)o3)OC2=O)c1 (configuration not stated)
IC50 [1]: 10.1 µM
Ki [1]: 6.75 µM
viability at 72 h, 250 ug/ml [2]: 90.8%
viability at 72 h, 250 ug/ml [3]: 92.5%
viability at 72 h, 250 ug/ml [4]: 92.7%
viability at 72 h, 250 ug/ml [5]: 98%

Cc1ccccc1N1CC(c2n[nH]c(=O)o2)OC1=O (configuration not stated)
IC50 [1]: 186 µM

CCOc1ccc(NCC(O)c2n[nH]c(=O)[nH]2)cc1 (configuration not stated)
IC50 [1]: 46.8 µM

CCc1cccc(N2CC(c3n[nH]c(=O)o3)OC2=O)c1 (configuration not stated)
IC50 [1]: 151 µM

CCc1ccccc1N1CC(c2n[nH]c(=O)o2)OC1=O (configuration not stated)
IC50 [1]: 102 µM

O=c1[nH]nc(C(O)CNc2ccc(OCc3ccccc3)cc2)[nH]1 (configuration not stated)
IC50 [1]: 21.2 µM
viability at 72 h, 250 ug/ml [2]: 89.3%
viability at 72 h, 250 ug/ml [3]: 94.2%
viability at 72 h, 250 ug/ml [4]: 89.8%
viability at 72 h, 250 ug/ml [5]: 94.7%

Cc1cc(C)cc(NCC(O)c2n[nH]c(=O)[nH]2)c1 (configuration not stated)
IC50 [1]: 30.7 µM

O=C1OC(Cc2n[nH]c(=O)o2)CN1c1cccc(OCc2ccccc2)c1 (configuration not stated)
IC50 [1]: 19.1 µM
viability at 72 h, 250 ug/ml [2]: 94.2%
viability at 72 h, 250 ug/ml [3]: 90.2%
viability at 72 h, 250 ug/ml [4]: 90.5%
viability at 72 h, 250 ug/ml [5]: 94.9%

CC(C)(C)c1ccc(NCC(O)c2n[nH]c(=O)[nH]2)cc1 (configuration not stated)
IC50 [1]: 40.2 µM

Cc1cccc(N2CC(c3n[nH]c(=O)o3)OC2=O)c1 (configuration not stated)
inhibition [6]: inactive

CCc1ccc(N2CC(c3n[nH]c(=O)o3)OC2=O)cc1 (configuration not stated)
IC50 [1]: 162 µM

Cc1ccc(NCC(O)c2n[nH]c(=O)[nH]2)c(C)c1 (configuration not stated)
IC50 [1]: 87.5 µM

CCc1cccc(NCC(O)c2n[nH]c(=O)[nH]2)c1 (configuration not stated)
IC50 [1]: 90.5 µM

O=c1[nH]nc(C(O)CNc2ccccc2)[nH]1 (configuration not stated)
IC50 [1]: 85.2 µM

Cc1ccc(NCC(O)c2n[nH]c(=O)[nH]2)cc1 (configuration not stated)
inhibition [6]: inactive

CCOc1ccc(N2CC(c3n[nH]c(=O)o3)OC2=O)cc1 (configuration not stated)
IC50 [1]: 116 µM

Cc1cc(C)cc(N2CC(c3n[nH]c(=O)o3)OC2=O)c1 (configuration not stated)
inhibition [6]: inactive

CCOc1ccc(N2CC(Cc3n[nH]c(=O)o3)OC2=O)cc1 (configuration not stated)
IC50 [1]: 61.3 µM

O=c1[nH]nc(C(O)CNc2cccc(OCc3ccccc3)c2)[nH]1 (configuration not stated)
IC50 [1]: 6.31 µM
Ki [1]: 2.24 µM
viability at 72 h, 250 ug/ml [2]: 90.3%
viability at 72 h, 250 ug/ml [3]: 93.4%
viability at 72 h, 250 ug/ml [4]: 91.6%
viability at 72 h, 250 ug/ml [5]: 95.4%

COc1ccc(NCC(O)c2n[nH]c(=O)[nH]2)cc1 (configuration not stated)
inhibition [6]: inactive

CCc1ccc(N2CC(Cc3n[nH]c(=O)o3)OC2=O)cc1 (configuration not stated)
IC50 [1]: 46.1 µM

CCc1ccc(NCC(O)c2n[nH]c(=O)[nH]2)cc1 (configuration not stated)
IC50 [1]: 110 µM

Cc1ccc(N2CC(c3n[nH]c(=O)o3)OC2=O)cc1 (configuration not stated)
inhibition [6]: inactive

O=C1OC(Cc2n[nH]c(=O)o2)CN1c1ccccc1 (configuration not stated)
IC50 [1]: 65.2 µM

CC(C)(C)c1ccc(N2CC(Cc3n[nH]c(=O)o3)OC2=O)cc1 (configuration not stated)
IC50 [1]: 56.8 µM

Cc1ccc(N2CC(Cc3n[nH]c(=O)o3)OC2=O)cc1 (configuration not stated)
inhibition [6]: inactive

Cc1cccc(NCC(O)c2n[nH]c(=O)[nH]2)c1 (configuration not stated)
IC50 [1]: 108 µM

O=C1OC(Cc2n[nH]c(=O)o2)CN1c1ccccc1OCc1ccccc1 (configuration not stated)
IC50 [1]: 1.21 µM
Ki [1]: 0.24 µM
inhibition [7]: Active
inhibition [8]: Dose-Dependent Effect
viability at 72 h, 250 ug/ml [2]: 91.5%
viability at 72 h, 250 ug/ml [3]: 94.6%
viability at 72 h, 250 ug/ml [4]: 93.8%
viability at 72 h, 250 ug/ml [5]: 96.5%

Cc1cccc(N2CC(Cc3n[nH]c(=O)o3)OC2=O)c1 (configuration not stated)
IC50 [1]: 30.6 µM

O=C1OC(c2n[nH]c(=O)o2)CN1c1ccc(OCc2ccccc2)cc1 (configuration not stated)
IC50 [1]: 73.1 µM

Cc1ccc(N2CC(c3n[nH]c(=O)o3)OC2=O)c(C)c1 (configuration not stated)
IC50 [1]: 98.7 µM

CC(C)c1ccc(NCC(O)c2n[nH]c(=O)[nH]2)cc1 (configuration not stated)
IC50 [1]: 51.4 µM

Cc1ccccc1NCC(O)c1n[nH]c(=O)[nH]1 (configuration not stated)
IC50 [1]: 93.5 µM

O=C1OC(Cc2n[nH]c(=O)o2)CN1c1ccc(OCc2ccccc2)cc1 (configuration not stated)
IC50 [1]: 45.7 µM

COc1cccc(N2CC(c3n[nH]c(=O)o3)OC2=O)c1 (configuration not stated)
IC50 [1]: 108 µM

COc1ccc(N2CC(c3n[nH]c(=O)o3)OC2=O)cc1 (configuration not stated)
inhibition [6]: inactive

CCc1ccccc1NCC(O)c1n[nH]c(=O)[nH]1 (configuration not stated)
IC50 [1]: 62.6 µM

COc1ccc(N2CC(Cc3n[nH]c(=O)o3)OC2=O)cc1 (configuration not stated)
inhibition [6]: inactive

COc1cccc(NCC(O)c2n[nH]c(=O)[nH]2)c1 (configuration not stated)
inhibition [6]: inactive

O=C1OC(c2n[nH]c(=O)o2)CN1c1cccc(OCc2ccccc2)c1 (configuration not stated)
IC50 [1]: 20.7 µM
viability at 72 h, 250 ug/ml [2]: 92.4%
viability at 72 h, 250 ug/ml [3]: 87.6%
viability at 72 h, 250 ug/ml [4]: 90.7%
viability at 72 h, 250 ug/ml [5]: 98.8%

CCOc1ccccc1NCC(O)c1n[nH]c(=O)[nH]1 (configuration not stated)
IC50 [1]: 38.8 µM

Cc1ccc(N2CC(Cc3n[nH]c(=O)o3)OC2=O)cc1C (configuration not stated)
inhibition [6]: inactive

CC(C)c1ccc(N2CC(Cc3n[nH]c(=O)o3)OC2=O)cc1 (configuration not stated)
IC50 [1]: 24.6 µM
viability at 72 h, 250 ug/ml [2]: 89.3%
viability at 72 h, 250 ug/ml [3]: 90.7%
viability at 72 h, 250 ug/ml [4]: 88.9%
viability at 72 h, 250 ug/ml [5]: 96.2%

CCc1cccc(N2CC(Cc3n[nH]c(=O)o3)OC2=O)c1 (configuration not stated)
IC50 [1]: 22.1 µM
viability at 72 h, 250 ug/ml [2]: 93.1%
viability at 72 h, 250 ug/ml [3]: 89.3%
viability at 72 h, 250 ug/ml [4]: 95.3%
viability at 72 h, 250 ug/ml [5]: 98.7%

O=C1OC(c2n[nH]c(=O)o2)CN1c1ccccc1 (configuration not stated)
inhibition [6]: inactive
